Values quoted from earlier work in publication PMC9150182 (ACS Sensors, 2022).

Experiments:
5-HT1A = target: T1, 5-HT1A (Homo sapiens, UniProt P08908); settings: yeast, Gpa1/Gαi3 chimera
T1 sequence (P08908 1-422): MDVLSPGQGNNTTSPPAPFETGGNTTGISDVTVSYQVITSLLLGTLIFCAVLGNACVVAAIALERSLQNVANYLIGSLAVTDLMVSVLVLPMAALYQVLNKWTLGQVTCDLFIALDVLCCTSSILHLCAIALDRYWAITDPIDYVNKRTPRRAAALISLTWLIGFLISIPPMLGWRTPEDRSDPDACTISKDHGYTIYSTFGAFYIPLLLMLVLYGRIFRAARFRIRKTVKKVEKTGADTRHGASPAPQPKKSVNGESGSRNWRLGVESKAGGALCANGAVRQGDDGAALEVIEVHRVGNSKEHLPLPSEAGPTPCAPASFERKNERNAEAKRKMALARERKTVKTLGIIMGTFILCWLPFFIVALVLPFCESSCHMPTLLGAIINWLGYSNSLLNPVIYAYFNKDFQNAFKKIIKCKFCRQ

5-HT4 isoform g 302Y>F [1] = settings: 302Y>F variant, COS7 cells
5-HT4 isoform g 302Y>F [2] = settings: 302Y>F variant, COS7 cells; remark: listed apart in the source

Row | Compound | increase over basal fluorescence after activation with serotonin (5-HT1A) | effect of variant on serotonin-induced activity (5-HT4 isoform g 302Y>F [1]) | decrease of affinity to the receptor (5-HT4 isoform g 302Y>F [2])
1 | NCCc1c[nH]c2ccc(O)cc12 [serotonin] | 300% | did not affect serotonin-induced activity | –
2 | Cn1cc(C(=O)OCC2CCN(CCNS(C)(=O)=O)CC2)c2ccccc21 [GR113808] | – | – | 13 fold
